Results reported in publication PMC6352943, “Novel pyrazolo[3,4-d]pyrimidines: design, synthesis, anticancer activity, dual EGFR/ErbB2 receptor tyrosine kinases inhibitory activity, effects on cell cycle profile and caspase-3-mediated apoptosis” (Journal of Enzyme Inhibition and Medicinal Chemistry, 2019).

System: NCI-H226
Assay: MTT cell viability assay
Type: cell-based
Details: Homo sapiens, NCI-H226 lung cancer, 48 h, mean ± SD of three experiments, read-out: IC50 (concentration required for 50% inhibition of cell viability)
Method: Cell Line cells were obtained from American Type Culture Collection, cells were cultured using Dulbecco's Modified Eagle's medium (DMEM) (Invitrogen/Life Technologies) supplemented with 10% foetal bovine serum (FBS) (Hyclone), 10 μg/mL of insulin (Sigma), and 1% penicillin-streptomycin. All of the other chemicals and reagents were from Sigma, or Invitrogen. Plate cells (cells density 1.2 – 1.8 × 10,000 cells/well) in a volume of 100 µL complete growth medium and 100 μL of the tested compound per well in a 96-well plate for 24 h before the MTT assay.
Remove culture medium to a centrifuge tube. […] Add 2.0 to 3.0 ml of Trypsin EDTA solution to flask and observe cells under an inverted microscope until cell layer is dispersed. Add 6 to 8 ml of complete growth medium and aspirate cells by gently pipetting. […]
The 3–(4, 5-dimethylthiazol-2-yl)-2,5-diphenyltetrazolium bromide (MTT) method[30] of monitoring in vitro cytotoxicity is well suited for use with multiwell plates. […] The number of living cells in the presence or absence (control) of the various test compounds is directly proportional to the intensity of the blue colour, measured by spectrophotometry using (ROBONIK P2000 Spectrophotometer) at a wavelength of 570 nm. Measure the background absorbance of multiwell plates at 690 nm and subtract from the 570 nm measurement. […]

Cc1nn(-c2ccc(F)cc2)c2ncnc(Nc3ccc(F)c(Cl)c3)c12 [Compound 7d, N-(3-Chloro-4-fluorophenyl)-1–(4-fluorophenyl)-3-methyl-1H-pyrazolo[3,4-d] pyrimidin-4-amine]
IC50: 17.4 ± 2.13 µM
